The source of these data is patent US11426473B2, “Nitrogen-containing compound or salt thereof, or metal complex thereof” (FUJIFILM Corporation, priority 2013, dated 2022).

Some results are limits rather than exact numbers.

Data set [1] in a line: Absorbed doses in each organ in humans calculated with OLINDA/EXM 1.0 from monkey organ distribution. Format: in vivo. As to conditions: calculated with OLINDA/EXM 1.0 from monkey imaging with [111In]-(P2). As to the method: (§1) Blood kinetic parameters were calculated with OLINDA/EXM 1.0 from the blood concentration of radioactivity by blood collection over time from a cynomolgus monkey using [^111In]-(P2). Also, absorbed doses in each organ in the case of administration to humans were calculated with OLINDA/EXM 1.0 from organ distribution by imaging using [^111In]-(P2). The radiolabeled compound [^111In]-(P2) (98 MBq/[…]) was administered to a cynomolgus monkey (Hamri Co., Ltd., male, 3 years old, 3.4 kg) under anesthesia. After the administration, blood collection and imaging with a gamma camera were performed over time. The blood collection was carried out 10 minutes, 30 minutes, 60 minutes, 2 hours, 4 hours, 5 hours, 6 hours, 24 hours, 48 hours, 72 hours, and 144 hours after administration. The imaging was carried out 1, 2, 4, 6, 24, 48, 72, and 144 hours after administration with a gamma camera (Symbia, Siemens AG) to take planar images. The anesthesia was carried out using 20 mg/kg ketamine before administration of [^111In]-(P2) and maintained by inhalation anesthesia (2 to 3% isoflurane, 5 to 8 L/min) until the completion of the imaging at 6 hours after administration. At or after 24 hours after administration, blood collection and imaging were performed by the introduction of 20 mg/kg ketamine and 2 mg/kg xylazine. […] The blood kinetic parameters are shown below.

Data set [2] concerns U87MG cells subcutaneous tumor. Description: Concentration of radioactivity in tumor of labeled compounds (Test Example 4). It counts as in vivo, mouse. As to conditions: tail vein, 111In 740 kBq, 64Cu and 90Y 500 kBq. As to the method:
U87MG cells were subcutaneously transplanted at 1×10^7 cells/mouse to the right flank of Balb/cAJcl-nu/nu (CLEA Japan, Inc. or Japan SLC, Inc., 6 to 9 weeks old). After 2 to 3 weeks, the mice were divided into groups each involving 3 individuals per point in time when their tumors became 200 to 500 mm^3. The ^111In-labeled compound (740 kBq) was administered to the tail veins of the mice.
After a given time, the animals were sacrificed to extract their tumors. The weights of the tumors were measured, and the radioactivity was measured using a gamma counter to calculate the concentration of radioactivity in the tumors (% ID/g). In the same way as above, the concentration of radioactivity in the tumors (% ID/g) was calculated for the ^64Cu-labeled compound (500 kBq) and the ^90Y-labeled compound (500 kBq).

Data set [3] in a line: Blood kinetic parameters in monkey. As to conditions: cynomolgus monkey, blood radioactivity, 98 MBq. It counts as in vivo. How it is done:
as §1

Data set [4] relates to U87MG cells intracranial tumor. Description: Imaging of integrin-expressing tumor, intracranial tumor model. It counts as in vivo. As to conditions: 1 MBq/mouse tail vein, FIG. 7. How it is done:
U87MG cells were intracranially transplanted at 1×10^7 cells/mouse to Balb/cAJcl-nu/nu (CLEA Japan, Inc., male, 6 weeks old) using a tapered needle. After 2 to 4 weeks, a dosing solution of the radiolabeled compound [^111In]-(P2) was administered at 1 MBq/mouse to the tail veins of the mice. 24, 48, and 72 hours after administration, the planar images were taken with a gamma camera (Symbia, Siemens AG) under isoflurane anesthesia (FIG. 7). After the imaging at the final time point, the brain was extracted, and frozen sections were prepared. Several pieces of the tumor sections were contacted with IP plates, and accumulation images were obtained by autoradiography (ARG). The serial sections were stained with hematoxylin-eosin to confirm tumors.

Data set [5] relates to U87MG cells subcutaneous tumor. Description: Imaging of integrin-expressing tumor with gamma camera. Format: in vivo. As to conditions: 1 MBq/mouse tail vein, 24 hours to 72 hours after administration, FIG. 6. How it is done:
U87MG cells were subcutaneously transplanted at 1×10^7 cells/mouse to the right flank of Balb/cAJcl-nu/nu (CLEA Japan, Inc., male, 6 weeks old). After 2 weeks, a dosing solution of the radiolabeled compound [^111In]-(P2) was administered at 1 MBq/mouse to the tail veins of mice whose tumors became 300 to 600 mm^3. 24, 48, and 72 hours after administration, the planar images were taken with a gamma camera (Symbia, Siemens AG) under isoflurane anesthesia. The radioactivity in the tumors (% ID) was calculated by image analysis.

A short description of data set [6]: Radiochemical purity after standing at room temperature. Format: physicochemical. How it is done:
To a mixed solution of compound (P2) (8.5 μg) and a 0.2 mol/L sodium acetate buffer solution (pH 4.0) (1.5 mL), a [^111In] indium chloride solution (80 MBq, 100 μL) was added. The mixture was heated at 100° C. for 15 minutes and then left at room temperature for 5 minutes to obtain radiolabeled compound [^111In]-(P2). […] Its radiochemical purity was 95% or more both immediately after preparation and after standing at room temperature for 24 hours.
To a mixed solution of compound (P2) (79 μg), gentisic acid (1.8 mg), a 0.6 mol/L sodium acetate buffer solution (pH 4.0, 120 μL), and a 0.4 mol/L aqueous sodium hydroxide solution (24 μL), a [^90Y] yttrium chloride solution (700 MBq, 240 μL) was added. The mixture was heated at 100° C. for 20 minutes and then left at room temperature for 5 minutes to obtain radiolabeled compound [^90Y]-(P2). […] Its radiochemical purity was 95% or more both immediately after preparation and after standing at room temperature for 24 hours.
To a mixed solution of compound (P2) ([…]) and a 0.2 mol/L sodium acetate buffer solution (pH 4.0, 219 μL), a [^64Cu] copper chloride solution (pH 5, 35 MBq, 55 μL) was added. The mixture was heated at 100° C. for 15 minutes and then left at room temperature for 5 minutes to obtain radiolabeled compound [^64Cu]-(P2). […] Its radiochemical purity was 90% or more both immediately after preparation and after standing at room temperature for 22 hours.
To a mixed solution of compound (Aa7) (4.2 μg), gentisic acid (1 mg), and a 0.2 mol/L sodium acetate buffer solution (pH 4.0) (5.0 μL), [^64Cu] copper chloride in a 0.2 mol/L sodium acetate buffer solution (pH 4.0) (40 MBq, 155 μL) was added. The mixture was heated at 100° C. for 15 minutes and then left at room temperature for 5 minutes to obtain radiolabeled compound [^64Cu]-(Aa7). […] Its radiochemical purity was 90% or more both immediately after preparation and after standing at room temperature for 24 hours.

Data set [7] can be described thus: Time-dependent planar imaging of monkey. Format: in vivo. Conditions: cynomolgus monkey, from administration to 6 hours later, FIG. 9. How it is done: as §1, with “below. […]” for “below.”
Data set [8] deals with U87MG cells subcutaneous tumor. Description: Imaging of integrin-expressing tumor by PET. It counts as in vivo. Conditions: at the time of anatomy (48 hours after administration), 4.8 MBq/mouse tail vein. How it is done:
U87MG cells were subcutaneously transplanted at 1×10^7 cells/mouse to the right flank of Balb/cAJcl-nu/nu (CLEA Japan, Inc. or Japan SLC, Inc., male, 6 to 9 weeks old). After 2 weeks, the radiolabeled compound [^64Cu]-(P2) was administered at 4.8 MBq/mouse to the tail veins of mice whose tumors became 250 to 650 mm^3. After 1, 4, 24, and 48 hours, the images were taken in microPET/CT (Inveon, Siemens AG) under isoflurane anesthesia. After the imaging at 48 hours after administration, the mice were euthanized by the collection of the whole blood from the postcava under deep anesthesia with isoflurane, followed by tumor extraction. The weights of the tumors were measured, and the radioactivity was measured using a gamma counter to calculate the concentration of radioactivity in the tumors (% ID/g). In the same way as above, [^64Cu]-(Aa7), [^64Cu]-(Ab9-a), and [^64Cu]-(Ab9-b) were imaged. However, the concentration of radioactivity in the tumors was not calculated. The tumor accumulation was confirmed for all of the compounds 1 hour after administration, and the tumors were visualized up to 48 hours later. […] The concentration of radioactivity in the tumors was 5.6% ID/g at the time of anatomy (48 hours after administration).

What is called Vss is the apparent volume that relates the amount in the body to the concentration in plasma or blood. As to `Cc1cc(OCCCC(=O)NCCNC(=O)[C@H](CS(=O)(=O)O)NC(=O)CN2CCN(CC(=O)[O-])CCN(CC(=O)[O-])CCN(CC(=O)[O-])CC2)cc(C)c1S(=O)(=O)N[C@@H](CNC(=O)CCCCc1ccc2c(n1)NCCC2)C(=O)O.[111In+3]` [[^111In]-(P2)], in data set [1], the “Absorbed dose, Brain” value is given as 0.25 mGy/MBq; the “Absorbed dose, Kidney” value is 1.19 mGy/MBq; the “Absorbed dose, Liver” value was 0.19 mGy/MBq; the “Absorbed dose, Lung” value was 0.12 mGy/MBq. In data set [1], the “Absorbed dose, Red bone marrow” value was 0.05 mGy/MBq; the “Absorbed dose, Small intestine” value is on record as 0.05 mGy/MBq; the “Absorbed dose, Whole body” value is recorded as 0.05 mGy/MBq. In addition, the “Concentration of radioactivity in tumor” value in data set [2] (4 hours later) is given as 11.10 % ID/g. Also, the “Concentration of radioactivity in tumor” value in data set [2] (24 hours later) was determined as 9.62 % ID/g. Moreover, in data set [3], the AUC is 0.22 % ID · h/mL, the CL was determined as 2.17 mL/min/kg, the Cmax stood at 0.018 % ID/mL and the “T½ α” value came out at 0.46 h. For the same molecule, in data set [3], the “T½ β” value is on record as 19.3 h and the Vss amounted to 3.52 L/kg. In addition, the “accumulation in intracranial tumor by planar imaging and ARG” value in data set [4] is “consistent with the tumor was confirmed”. In data set [5], the “radioactivity in tumor versus other organs, planar images” value is reported as “radioactivity was higher in the tumor than other organs”. For the same molecule, the “radiochemical purity after standing” value in data set [6] (immediately after preparation and after standing at room temperature for 24 hours) is at least 95%. Besides, the “organ accumulation on planar images” value in data set [7] was “accumulation to the bladder and the gallbladder was increased over time”.
In the case of `Cc1cc(OCCCC(=O)NCCNC(=O)[C@H](CS(=O)(=O)O)NC(=O)CN2CCN(CC(=O)[O-])CCN(CC(=O)[O-])CCN(CC(=O)O)CC2)cc(C)c1S(=O)(=O)N[C@@H](CNC(=O)CCCCc1ccc2c(n1)NCCC2)C(=O)O.[64Cu+2]` [[^64Cu]-(P2)], in data set [1], the “Absorbed dose, Brain” value is listed as 0.11 mGy/MBq; the “Absorbed dose, Kidney” value is recorded as 0.69 mGy/MBq; the “Absorbed dose, Liver” value is reported as 0.09 mGy/MBq; the “Absorbed dose, Lung” value was 0.08 mGy/MBq. For the same molecule, in data set [1], the “Absorbed dose, Red bone marrow” value is given as 0.01 mGy/MBq; the “Absorbed dose, Small intestine” value is given as 0.06 mGy/MBq; the “Absorbed dose, Whole body” value is recorded as 0.02 mGy/MBq. Moreover, the “Concentration of radioactivity in tumor” value in data set [2] (4 hours later) came to 9.25 % ID/g. In data set [2] (24 hours later), the “Concentration of radioactivity in tumor” value worked out at 8.48 % ID/g. Moreover, the “radiochemical purity after standing” value in data set [6] (immediately after preparation and after standing at room temperature for 22 hours) is given as at least 90%. In data set [8], the “concentration of radioactivity in the tumors” value was 5.6 % ID/g.
